Consider 5 compounds from patent US7442791B2, “Aminoalkylamide substituted cyclohexyl derivatives” (Hoffmann-La Roche Inc., priority 2003, dated 2008).

For series [1], the target named is T1, Human Liver Microsomal 2,3-oxidosqualene-lanosterol Cyclase (OSC) (Homo sapiens, UniProt P48449).
T1 construct: Liver microsomes from a healthy volunteer were prepared in sodium phosphate buffer (pH 7.4); from tissue; host or cells: human liver microsomes (healthy volunteer)
T1 sequence (P48449 1-732): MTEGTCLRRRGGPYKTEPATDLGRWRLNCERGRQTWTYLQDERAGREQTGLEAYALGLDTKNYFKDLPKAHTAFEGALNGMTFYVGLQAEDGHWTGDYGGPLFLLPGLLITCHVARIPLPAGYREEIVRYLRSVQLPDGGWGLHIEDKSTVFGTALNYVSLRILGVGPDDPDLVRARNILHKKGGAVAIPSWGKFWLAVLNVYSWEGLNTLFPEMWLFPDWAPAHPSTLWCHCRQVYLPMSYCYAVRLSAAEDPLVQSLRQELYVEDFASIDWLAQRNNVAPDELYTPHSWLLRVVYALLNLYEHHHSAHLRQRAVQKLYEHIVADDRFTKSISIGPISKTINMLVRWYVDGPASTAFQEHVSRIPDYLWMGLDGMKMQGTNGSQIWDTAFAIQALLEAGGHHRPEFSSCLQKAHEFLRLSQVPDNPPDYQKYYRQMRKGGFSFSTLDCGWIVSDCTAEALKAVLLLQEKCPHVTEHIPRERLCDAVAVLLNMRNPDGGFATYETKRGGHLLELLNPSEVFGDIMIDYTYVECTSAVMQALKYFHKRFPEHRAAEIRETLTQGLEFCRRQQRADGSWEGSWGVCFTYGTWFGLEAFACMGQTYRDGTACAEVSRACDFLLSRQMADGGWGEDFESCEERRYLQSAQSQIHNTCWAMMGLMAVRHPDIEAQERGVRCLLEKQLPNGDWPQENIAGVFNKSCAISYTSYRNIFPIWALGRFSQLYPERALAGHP
As to the kind of experiment: Inhibition of human liver microsomal 2,3-oxidosqualene-lanosterol cyclase (OSC). It is filed as biochemical. The settings on record: read-out: percentage OSC inhibition against controls. How it is done:
Inhibition of Human Liver Microsomal 2,3-oxidosqualene-lanosterol Cyclase (OSC)
Liver microsomes from a healthy volunteer were prepared in sodium phosphate buffer (pH 7.4). The OSC activity was measured in the same buffer, which also contained 1 mM EDTA and 1 mM dithiothreitol. The microsomes were diluted to 0.8 mg/ml protein in cold phosphate buffer. Dry [^14C]R,S-monooxidosqualene (MOS, 12.8 mCi/mmol) was diluted to 20 nCi/μl with ethanol and mixed with phosphate buffer-1% BSA (bovine serum albumin). A stock solution of 1 mM test substance in DMSO was diluted to the desired concentration with phosphate buffer-1% BSA. 40 μl of microsomes were mixed with 20 μl of the solution of the test substance and the reaction was subsequently started with 20 μl of the [^14C]R,S-MOS solution. The final conditions were 0.4 mg/ml of microsomal proteins and […] of [^14C]R,S-MOS in phosphate buffer, pH 7.4, containing 0.5% albumin, DMSO<0.1% and ethanol<2%, in a total volume of 80 μl.
After 1 hour at 37° C. the reaction was stopped by the addition of 0.6 ml of 10% KOH-methanol, 0.7ml of water and 0.1 ml of hexane:ether (1:1, v/v) which contained 25 μg of non-radioactive MOS and 25 μg of lanosterol as carriers. After shaking, 1 ml of hexane:ether (1:1, v/v) was added to each test tube, these were again shaken and then centrifuged. The upper phase was transferred into a glass test tube, the lower phase was again extracted with hexane:ether and combined with the first extract. The entire extract was evaporated to dryness with nitrogen, the residue was suspended in 50 μl of hexane:ether and applied to a silica gel plate. Chromatographic separation was effected in hexane:ether (1:1, v/v) as the eluent. The Rf values for the MOS substrate and the lanosterol product were 0.91 and, respectively, 0.54. After drying, radioactive MOS and lanosterol were observed on the silica gel plate. The ratio of MOS to lanosterol was determined from the radioactive bands in order to determine the yield of the reaction and OSC inhibition.
The test was carried out on the one hand with a constant test substance concentration of 100 nM and the percentage OSC inhibition against controls was calculated.
In addition, the test was carried out with different test substance concentrations and subsequently the IC50 value was calculated, i.e. the concentration required to reduce the conversion of MOS into lanosterol to 50% of the control value.
(In general: Liver microsomes are a subcellular fraction often used to study metabolism.)

Where [2] appears, read: constant test substance concentration of 100 nM, human liver microsomes, [14C]R,S-MOS, 1 hour at 37° C.

Molecules are shown by their SMILES. Where two headings read alike, the source gives them in different places.

In the case of `CN(C)CCN(C)C(=O)CC[C@H]1CC[C@H](CN(C)S(=O)(=O)c2ccc(C(F)(F)F)cc2)CC1` [Example 22.6, trans-N-(2-dimethylamino-ethyl)-N-methyl-3-(4-{[methyl-(4-trifluoromethyl-benzenesulfonyl)-amino]-methyl}-cyclohexyl)-propionamide], in series [1] (setting [2]), the inhibition (commonly how much of the control response was suppressed) at 0.1 µM came out at 56%. Same read-out and setting: the same measure for `CN(C)CCN(C)C(=O)CCO[C@H]1CC[C@H](N(C)S(=O)(=O)c2ccc(C(F)(F)F)cc2)CC1` [Example 1.6, trans-N-(2-dimethylamino-ethyl)-N-methyl-3-{4-[methyl-(4-trifluoromethyl-benzenesulfonyl)-amino]-cyclohexyloxy}-propionamide]: 61%. Take `CN(C)CCN(C)C(=O)[C@H]1CC[C@H](CN(C)C(=O)Oc2ccc(Cl)cc2)CC1` [Example 5.4, trans-{4-[(2-dimethylamino-ethyl)-methyl-carbamoyl]-cyclohexylmethyl}-methyl-carbamic acid 4-chloro-phenyl ester]: the inhibition at 0.1 µM in series [1] is 51%. For `CCN(CCO)CCN(C)C(=O)[C@H]1CC[C@H](CCN(C)c2ncc(Br)cn2)CC1` [Example 15.4, trans-4-{2-[(5-bromo-pyrimidin-2-yl)-methyl-amino]-ethyl}-cyclohexanecarboxylic acid {2-[ethyl-(2-hydroxy-ethyl)-amino]-ethyl}-methyl-amide], the inhibition at 0.1 µM in series [1] (setting [2]) came to 65%. Consider `CN(C)CCN(C)C(=O)[C@H]1CC[C@H](N(C)S(=O)(=O)c2ccc(C(F)(F)F)cc2)CC1` [Example 4.4, trans-4-[methyl-(4-trifluoromethyl-benzenesulfonyl)-amino]-cyclohexanecarboxylic acid (2-dimethylamino-ethyl)-methyl-amide], for which the melting point – broadly, the temperature, or range, at which the solid turns liquid – is 83 °C.
